From US4197286A, “Testosterone derivatives and assay method” (Southwest Research Institute, priority 1977, dated 1980)

These compounds were tested on anti-testosterone serum from rabbit No. X-181 (assay: Cross-reactivity of structurally similar steroids with the anti-testosterone serum). Conditions: antiserum of rabbit X-181; testosterone = 100.
Format: binding
Method: Also, the cross-reactivity of pertinent and structurally similar steroids was determined to be as follows:

For C[C@]12CCC(=O)C=C1CC[C@@H]1[C@@H]2CC[C@]2(C)C(=O)CC[C@@H]12 [Androstenedione], which “% CROSS-REACTIVITY” value is on record?
Its value is 0.90%.

C[C@]12CC[C@H]3[C@@H](C[C@H](O)C4=CC(=O)CC[C@@]43C)[C@@H]1CC[C@@H]2O [6α-Hydroxytestosterone] was tested. Which “% CROSS-REACTIVITY” value did it give?
The value was 0.75%.

For C[C@]12CCC(=O)C[C@H]1CC[C@@H]1[C@@H]2CC[C@]2(C)[C@@H](O)CC[C@@H]12 [5β-Dihydrotestosterone], which “% CROSS-REACTIVITY” value is on record?
Its value is 0.63%.

For CC(=O)[C@H]1CC[C@H]2[C@@H]3CCC4=CC(=O)CC[C@]4(C)[C@H]3CC[C@]12C [Progesterone], which “% CROSS-REACTIVITY” value is on record?
Its value is 0.00%.

With C[C@]12CCC(=O)C[C@H]1CC[C@@H]1[C@@H]2CC[C@]2(C)C(=O)CC[C@@H]12 [5β-Androstane-3,17-dione] as the compound, how does the “% CROSS-REACTIVITY” value read?
Its value is 0.00%.

Which “% CROSS-REACTIVITY” value does the source give for C[C@]12CCC(=O)C[C@@H]1CC[C@@H]1[C@@H]2CC[C@]2(C)[C@@H](O)CC[C@@H]12 [5α-Dihydrotestosterone] here?
Its value is 6.65%.

Which “% CROSS-REACTIVITY” value does the source give for C[C@]12CC[C@H](O)C[C@@H]1CC[C@@H]1[C@@H]2CC[C@]2(C)[C@@H](O)CC[C@@H]12 [5α-Androstane-3β,17β-diol] here?
Its value is 2.19%.

How did the “% CROSS-REACTIVITY” value turn out when C[C@]12CC[C@@H]3c4ccc(O)cc4CC[C@H]3[C@@H]1CCC2=O [Estrone] was run?
The value was 0.00%.

With C[C@]12CC[C@H]3[C@@H](CCC4=CC(=O)CC[C@@]43C)[C@@H]1CC[C@@H]2C(=O)CO [Deoxycorticosterone] as the compound, how does the “% CROSS-REACTIVITY” value read?
Its value is 0.00%.

How did the “% CROSS-REACTIVITY” value turn out when C[C@]12CC[C@H]3[C@@H](CC=C4C[C@@H](O)CC[C@@]43C)[C@@H]1CC[C@@H]2O [5-Androstene-3β,17β-diol] was run?
Its value is 0.51%.

For C[C@]12C[C@H](O)[C@H]3[C@@H](CCC4=CC(=O)CC[C@@]43C)[C@@H]1CC[C@@H]2C(=O)CO [Corticosterone], which “% CROSS-REACTIVITY” value is on record?
The value was 0.00%.

With C[C@]12CC[C@@H](O)C[C@@H]1CC[C@@H]1[C@@H]2CC[C@]2(C)[C@@H](O)CC[C@@H]12 [5α-Androstane-3α, 17β-diol] as the compound, how does the “% CROSS-REACTIVITY” value read?
Its value is 0.00%.

How did the “% CROSS-REACTIVITY” value turn out when C[C@]12CC[C@@H]3c4ccc(O)cc4CC[C@H]3[C@@H]1C[C@@H](O)[C@@H]2O [Estriol] was run?
The value was 0.00%.

How did the “% CROSS-REACTIVITY” value turn out when C[C@]12C[C@H](O)[C@H]3[C@@H](CCC4=CC(=O)CC[C@@]43C)[C@@H]1CC[C@@H]2O [11β-Hydroxytestosterone] was run?
Its value is 0.00%.

Which “% CROSS-REACTIVITY” value does the source give for C[C@]12CC[C@H](O)C[C@@H]1CC[C@@H]1[C@@H]2CC[C@]2(C)C(=O)CC[C@@H]12 [Epiandrosterone] here?
The value was 0.19%.

How did the “% CROSS-REACTIVITY” value turn out when C[C@]12CC[C@@H](O)C[C@@H]1CC[C@@H]1[C@@H]2CC[C@]2(C)C(=O)CC[C@@H]12 [Androsterone] was run?
The value was 0.00%.

For C[C@]12CCC(=O)C=C1CC[C@@H]1[C@@H]2[C@@H](O)C[C@]2(C)C(=O)CC[C@@H]12 [11β-Hydroxyandrostenodione], which “% CROSS-REACTIVITY” value is on record?
Its value is 0.00%.

How did the “% CROSS-REACTIVITY” value turn out when C[C@]12CC[C@H]3[C@@H](CCC4=CC(=O)CC[C@@]43C)[C@@H]1CC[C@@H]2O [Testosterone] was run?
Its value is 100.00%.

How did the “% CROSS-REACTIVITY” value turn out when C[C@]12CC[C@H](O)CC1=CC[C@@H]1[C@@H]2CC[C@]2(C)C(=O)CC[C@@H]12 [Dehydroepiandrosterone] was run?
Its value is 0.00%.

For C[C@]12CC[C@@H]3c4ccc(O)cc4CC[C@H]3[C@@H]1CC[C@@H]2O [Estradiol], which “% CROSS-REACTIVITY” value is on record?
Its value is 0.43%.

Which “% CROSS-REACTIVITY” value does the source give for C[C@]12CC(=O)[C@H]3[C@@H](CCC4=CC(=O)CC[C@@]43C)[C@@H]1CC[C@@H]2O [11β-Oxotestosterone] here?
The value was 1.80%.
